Measured values: ChEMBL document CHEMBL1153006, “Synthesis, NMR characterization and in vitro antitumor evaluation of new aminophosphonic acid diesters” (Eur J Med Chem, 2009)
pIC50: −log10 of the molar value.

Tests used:
Assay type in all cases: functional, cell-based
LAMA-84 = test: Cytotoxicity against human LAMA-84 cells after 72 hrs by MTT assay; conditions: LAMA-84, 72 h
K562 = test: Cytotoxicity against human K562 cells after 72 hrs by MTT assay; conditions: K562, 72 h
HL-60 [1] = test: Cytotoxicity against human HL60 cells after 72 hrs by MTT assay; conditions: HL-60, 72 h
HL-60 [2] = test: Cytotoxicity against multidrug-resistant human HL60 cells overexpressing in MRP-1 after 72 hrs by MTT assay; conditions: HL-60, 72 h

Row | SMILES | pIC50 (LAMA-84) | pIC50 (K562) | pIC50 (HL-60 [1]) | pIC50 (HL-60 [2])
1 | Cc1ccc(/N=C\c2ccc(N(C)C)cc2)cc1 | 3.60 | 3.67 | < 3.40 | 3.65
2 | CCOP(=O)(OCC)C(NCCCN(C)C)c1ccco1 (stereo unspecified) | < 3.40 | 3.45 | 3.79 | 3.72
3 | CCOP(=O)(OCC)C(Nc1ccc(C)cc1)c1ccc(N(C)C)cc1 (stereo unspecified) | 3.92 | 4.37 | < 3.40 | 3.97
4 | Cc1ccc(/N=C\c2ccco2)cc1 [N-FURFURYLIDENE-P-TOLUIDINE] | 4.40 | 4.52 | < 3.40 | 4.16
